Measured values published in patent publication US11806344B2, “Pharmaceutical composition comprising mineralocorticoid receptor antagonist and use thereof” (priority 2016, dated 2023).
“Also recorded” adds a separate entry of the source. Like-named read-outs stand apart in the source and are kept apart here.

What was measured:
[1] = 13-week toxicity and pharmacokinetic study in SD rats with 4-week recovery (Example 5); format: in vivo; conditions: rat, in vivo; for AUC(0-t): SD, po, read-out: AUC0-24 h; for NOAEL at 13 weeks: oral, read-out: NOAEL (no observed adverse effect level)
Procedure: (§1) Sample to test: Solid dispersion of Compound I (Compound I:PVPK30=1:8 (w/w))
(§2) Animals: SD Rats, SPF Level.
(§3) Two hundred and twenty SD rats were used in the studies. Three groups, i.e., high dose group, intermediate dose group and low dose group, were administered with Compound I with following doses, 20 males and 20 females for each group. In specific, male animals were given the suspension at the doses of 3, 9 and 30 mg/kg/day, respectively, while the females were administered at the doses of 1, 3, and 10 mg/kg/day, respectively. The animals in the control group, 20 males and 20 females, were given purified water. All animals fasted overnight before blood collections and anatomical examinations.
(§4) In addition, for the pharmacokinetic study, 9 males and 9 females were assigned into the administration group, while 3 males and 3 females were for the control group.

SD rats = experiment: as above; format: in vivo; conditions: 13 weeks
Procedure: as §1, §2, §3, §4

[2] = tested on: Dahl/ss rats with salt induced renal injury; experiment: Efficacy test in salt-sensitive rats with salt induced renal injury (Example 6); format: in vivo; conditions: Dahl/ss rats on 4% NaCl diet
Procedure: Animals: Male Dahl/Ss Rats
Solid dispersions of Compound I (Compound I:PVPK30=1:8 (w/w)): Solid dispersions of Compound I was formulated with suitable amount of sterile water for injection into suspensions having concentrations of 0.03, 0.10, 0.30 and 1.00 mg/mL, respectively. The suspensions were prepared immediately before use. […]
One week before the experiment, the blood pressures were measured twice in rats by the tail-cuff blood pressure measurement so that rats could accommodate to the blood pressure monitoring operation. Then, immediately before the test, the blood pressure was determined and used as the baseline value. […]
Blood pressure (systolic blood pressure, SBP) measurement: Blood pressure was measured for 6 weeks, once a week, and the blood pressure changes in these groups were analyzed.
Pathological examination for the kidney and heart: At the end of the study, rats were sacrificed painlessly, from which bilateral kidneys and the heart were collected for histopathological analysis. The kidneys were stained using Hematoxylin-Eosin (HE) to semi-quantitatively evaluate renal injuries. The thickness of the left ventricular wall was measured for each heart to analyze the heart injury. […]

[3] = Safety, tolerability and pharmacokinetics in healthy subjects, single dose (Example 7); format: in vivo, human; conditions: human, plasma, oral
Procedure: (§5) Five groups of healthy subjects were given capsules at doses of 0.5 mg (1 capsule, 0.5 mg of Compound I per capsule), 1.0 mg (2 capsules, 0.5 mg of Compound I per capsule), 2.5 mg (1 capsule, 2.5 mg of Compound I per capsule), 10 mg (1 capsule, 10 mg of Compound I per capsule), and 30 mg (3 capsules, 10 mg of Compound I per capsule), each group containing 8 subjects. The drug administration was done only once.
(§6) The capsules mentioned above were the ones prepared in Example 2, i.e., the capsules of Capsule formulation 3 (0.5 mg of Compound I per capsule), Capsule formulation 4 (2.5 mg of Compound I per capsule), and Capsule formulation 5 (10 mg of Compound I per capsule).
(§7) Plasma samples were collected to measure plasma drug concentration, and the pharmacokinetic parameters were analyzed using the non-compartment model. Serum samples were collected to measure serum potassium levels.

healthy subjects = experiment: as above; format: in vivo, human; conditions: single dose 0.5 to 30 mg/day
Procedure: as §5, §6, §7

N#Cc1ccc(N2N=C3c4ccc(C(=O)N5CCC(O)CC5)nc4CC[C@@H]3[C@@H]2C2CCCC2)cc1Cl [Compound I, 2-chloro-4-[(3S,3aR)-3-cyclopentyl-7-(4-hydroxylpiperidine-1-carbonyl)-3,3a,4,5-tetrahydro-2H-pyrazolo[3,4-f]quinolin-2-yl]benzonitrile]
AUC(0-t) ([1]; female, 1 mg/kg/day, female SD rats, 1 mg/kg/day intragastric, 13 weeks): 4080 ng·h/mL
AUC(0-t) ([1]; female, 3 mg/kg/day, female SD rats, 3 mg/kg/day intragastric, 13 weeks): 15500 ng·h/mL
AUC(0-t) ([1]; female, 10 mg/kg/day, female SD rats, 10 mg/kg/day intragastric, 13 weeks): 43600 ng·h/mL
AUC(0-t) ([1]; male, 3 mg/kg/day, male SD rats, 3 mg/kg/day intragastric, 13 weeks): 5430 ng·h/mL
AUC(0-t) ([1]; male, 9 mg/kg/day, male SD rats, 9 mg/kg/day intragastric, 13 weeks): 16500 ng·h/mL
AUC(0-t) ([1]; male, 30 mg/kg/day, male SD rats, 30 mg/kg/day intragastric, 13 weeks (steady-state)): 49900 ng·h/mL
NOAEL at 13 weeks ([1]; female SD rats, 13 weeks): 10 mg/kg/day
NOAEL at 13 weeks ([1]; male SD rats, 13 weeks): 30 mg/kg/day
serum potassium level (observation) (SD rats; SD rats, high dose/NOAEL (male 30, female 10 mg/kg/day)): no obvious abnormal serum potassium level was observed; also recorded: serum potassium level was not elevated
K+ (Mean ± SD) (SD rats; female SD rats, 1 mg/kg/day intragastric): 4.4 ± 0.4 mmol/L
K+ (Mean ± SD) (SD rats; female SD rats, 3 mg/kg/day intragastric): 4.4 ± 0.3 mmol/L
K+ (Mean ± SD) (SD rats; female SD rats, 10 mg/kg/day intragastric): 4.5 ± 0.2 mmol/L
K+ (Mean ± SD) (SD rats; male SD rats, 3 mg/kg/day intragastric): 5.0 ± 0.3 mmol/L
K+ (Mean ± SD) (SD rats; male SD rats, 9 mg/kg/day intragastric): 5.0 ± 0.3 mmol/L
K+ (Mean ± SD) (SD rats; male SD rats, 30 mg/kg/day intragastric): 5.1 ± 0.2 mmol/L
side effects (observation) (SD rats; male SD rats, high dose 30 mg/kg/day): No obvious side effect was observed
AUC0-24 at which the drug takes effect (undulation point of SBP or UACR vs AUC0-24 curve) ([2]; 0.3-10 mg/kg/day intragastric twice a day, 42 days): 100 ng·h/mL
SBP and UACR change (observation) ([2]; beyond AUC of 100 h*ng/mL): SBP and UACR were significantly decreased
half-life ([3]; single dose 0.5 mg): 61.5 h
AUC(0-t) ([3]; single dose 0.5 mg capsule, read-out: AUC0-24): 162 ng·h/mL
half-life ([3]; single dose 1.0 mg): 60.9 h
AUC(0-t) ([3]; single dose 1.0 mg capsules, read-out: AUC0-24): 397 ng·h/mL
half-life ([3]; single dose 2.5 mg): 53.3 h
AUC(0-t) ([3]; single dose 2.5 mg capsule, read-out: AUC0-24): 640 ng·h/mL
half-life ([3]; single dose 10 mg): 52.8 h
AUC(0-t) ([3]; single dose 10 mg capsule, read-out: AUC0-24): 3080 ng·h/mL
half-life ([3]; single dose 30 mg): 73.9 h
AUC(0-t) ([3]; single dose 30 mg capsules, read-out: AUC0-24): 5020 ng·h/mL
half-life ([3]; single dose 0.5 to 30 mg/day): ~60 h
AUC(0-t) ([3]; single dose 0.5 to 30 mg/day, read-out: AUC0-24 (range over dose groups)): 162 to 5020 ng·h/mL
serum potassium level (observation) (healthy subjects): no elevated serum potassium level was observed
